Assay results from US10556883B2, “Benzenesulfonamide compounds, method for synthesizing same, and use thereof in medicine and cosmetics” (GALDERMA RESEARCH & DEVELOPMENT, priority 2016, dated 2020).

Tested on: TNFα secretion from LPS stimulated frozen Peripheral Blood Mononuclear Cells (PBMC)
Assay: inhibition of TNFα secretion from LPS stimulated human PBMC (hPBMC assay)
Format: cell-based
Conditions: LPS 1 μg/mL, overnight incubation, TNFα by HTRF
Experimental: Activity of the compounds was investigated using human peripheral blood mononuclear cells (hPBMC). This assay was designed to measure the inhibition of the TNFα secretion from LPS stimulated frozen Peripheral Blood Mononuclear Cells (PBMC) isolated from human blood. TNFα levels were measured using HTRF® Human TNFα kit (Cisbio #62TNFPEC) which is a rapid and quantitative sandwich immunoassay based on TR-FRET technology.
Frozen PBMC were quickly thawed, resuspended in culture medium (RPMI 10% inactivated FBS) and viable cells were seeded in 96-well plates (50,000 cells/well). […] After overnight incubation at 37° C., 10 μL of cell supernatant were mixed with 5 μL of each tagged anti-TNFα specific antibody as recommended by the supplier. After 2 hours of incubation at room temperature, the HTRF® signals were measured using a microplate reader (wavelengths: excitation=337 nm, first emission=620 nm, second emission=665 nm).

Row | Compound | IC50 [nM]
1 | CC(=O)N1CC(CC(=O)NO)(NS(=O)(=O)c2ccc(OCc3cc(C)nc4ccccc34)cc2)C1 [Example 1, 2-(1-acetyl-3-((4-((2-methylquinolin-4-yl)methoxy)phenyl)sulfonamido)azetidin-3-yl)-N-hydroxyacetamide] | < 50
2 | Cc1cc(COc2ccc(S(=O)(=O)NC3(CC(=O)NO)CN(C(=O)OC(C)(C)C)C3)cc2)c2ccccc2n1 [Example 2, Tert-butyl 3-(2-(hydroxyamino)-2-oxoethyl)-3-((4-((2-methylquinolin-4-yl)methoxy)phenyl)sulfonamido)azetidine-1-carboxylate] | < 50
3 | CC(=O)N1CC(CC(=O)NO)(N(C)S(=O)(=O)c2ccc(OCc3cc(C)nc4ccccc34)cc2)C1 [Example 3, 2-(1-acetyl-3-((N-methyl-4-((2-methylquinolin-4-yl)methoxy)phenyl)sulfonamido)azetidin-3-yl)-N-hydroxyacetamide] | 500 to 1000
4 | Cc1cc(COc2ccc(S(=O)(=O)NC3(CC(=O)NO)CN(C(=O)CC(C)C)C3)cc2)c2ccccc2n1 [Example 4a, N-hydroxy-2-(1-(3-methylbutanoyl)-3-((4-((2-methylquinolin-4-yl)methoxy)phenyl)sulfonamido)azetidin-3-yl)acetamide] | < 50
5 | Cc1cc(COc2ccc(S(=O)(=O)NC3(CC(=O)NO)CN(C(=O)C(C)C)C3)cc2)c2ccccc2n1 [Example 4b, N-hydroxy-2-(1-isobutyryl-3-((4-((2-methylquinolin-4-yl)methoxy)phenyl)sulfonamido)azetidin-3-yl)acetamide] | < 50
6 | Cc1cc(COc2ccc(S(=O)(=O)NC3(CC(=O)NO)CN(C(=O)C4CC4)C3)cc2)c2ccccc2n1 [Example 4c, 2-(1-(cyclopropanecarbonyl)-3-((4-((2-methylquinolin-4-yl)methoxy)phenyl)sulfonamido)azetidin-3-yl)-N-hydroxyacetamide] | < 50
7 | Cc1cc(COc2ccc(S(=O)(=O)NC3(CC(=O)NO)CN(C(=O)C(C)(C)C)C3)cc2)c2ccccc2n1 [Example 4d, N-hydroxy-2-(3-((4-((2-methylquinolin-4-yl)methoxy)phenyl)sulfonamido)-1-pivaloylazetidin-3-yl)acetamide] | < 50
8 | CCCC(=O)N1CC(CC(=O)NO)(NS(=O)(=O)c2ccc(OCc3cc(C)nc4ccccc34)cc2)C1 [Example 4e, 2-(1-butyryl-3-((4-((2-methylquinolin-4-yl)methoxy)phenyl)sulfonamido)azetidin-3-yl)-N-hydroxyacetamide] | < 50
9 | COCC(=O)N1CC(CC(=O)NO)(NS(=O)(=O)c2ccc(OCc3cc(C)nc4ccccc34)cc2)C1 [Example 4f, N-hydroxy-2-(1-(2-methoxyacetyl)-3-((4-((2-methylquinolin-4-yl)methoxy)phenyl)sulfonamido)azetidin-3-yl)acetamide] | < 50
10 | Cc1cc(COc2ccc(S(=O)(=O)NC3(CC(=O)NO)CN(C(=O)C4CCOCC4)C3)cc2)c2ccccc2n1 [Example 4g, N-hydroxy-2-(3-((4-((2-methylquinolin-4-yl)methoxy)phenyl)sulfonamido)-1-(tetrahydro-2H-pyran-4-carbonyl)azetidin-3-yl)acetamide] | < 50
11 | Cc1cc(COc2ccc(S(=O)(=O)NC3(CC(=O)NO)CN(C(=O)C4CCCC4)C3)cc2)c2ccccc2n1 [Example 4h, 2-(1-(cyclopentanecarbonyl)-3-((4-((2-methylquinolin-4-yl)methoxy)phenyl)sulfonamido)azetidin-3-yl)-N-hydroxyacetamide] | < 50
12 | CCC(CC)C(=O)N1CC(CC(=O)NO)(NS(=O)(=O)c2ccc(OCc3cc(C)nc4ccccc34)cc2)C1 [Example 4i, 2-(1-(2-ethylbutanoyl)-3-((4-((2-methylquinolin-4-yl)methoxy)phenyl)sulfonamido)azetidin-3-yl)-N-hydroxyacetamide] | < 50
13 | Cc1cc(COc2ccc(S(=O)(=O)NC3(CC(=O)NO)CN(C(=O)C4CCCCC4)C3)cc2)c2ccccc2n1 [Example 4j, 2-(1-(cyclohexanecarbonyl)-3-((4-((2-methylquinolin-4-yl)methoxy)phenyl)sulfonamido)azetidin-3-yl)-N-hydroxyacetamide] | < 50
14 | CCOC(=O)N1CC(CC(=O)NO)(NS(=O)(=O)c2ccc(OCc3cc(C)nc4ccccc34)cc2)C1 [Example 5a, Ethyl 3-(2-(hydroxyamino)-2-oxoethyl)-3-((4-((2-methylquinolin-4-yl)methoxy)phenyl)sulfonamido)azetidine-1-carboxylate] | < 50
15 | COC(=O)N1CC(CC(=O)NO)(NS(=O)(=O)c2ccc(OCc3cc(C)nc4ccccc34)cc2)C1 [Example 5b, methyl 3-(2-(hydroxyamino)-2-oxoethyl)-3-((4-((2-methylquinolin-4-yl)methoxy)phenyl)sulfonamido)azetidine-1-carboxylate] | < 50
16 | C=CCOC(=O)N1CC(CC(=O)NO)(NS(=O)(=O)c2ccc(OCc3cc(C)nc4ccccc34)cc2)C1 [Example 5c, allyl 3-(2-(hydroxyamino)-2-oxoethyl)-3-((4-((2-methylquinolin-4-yl)methoxy)phenyl)sulfonamido)azetidine-1-carboxylate] | < 50
17 | Cc1cc(COc2ccc(S(=O)(=O)NC3(CC(=O)NO)CN(C(=O)OC(C)C)C3)cc2)c2ccccc2n1 [Example 5d, isopropyl 3-(2-(hydroxyamino)-2-oxoethyl)-3-((4-((2-methylquinolin-4-yl)methoxy)phenyl)sulfonamido)azetidine-1-carboxylate] | < 50
18 | CC(=O)N1CC(CC(=O)NO)(NS(=O)(=O)c2ccc(OCc3cc(C)nc4c(F)cccc34)cc2)C1 [Example 6, 2-(1-acetyl-3-((4-((8-fluoro-2-methylquinolin-4-yl)methoxy)phenyl)sulfonamido)azetidin-3-yl)-N-hydroxyacetamide] | 50 to 100
19 | Cc1cc(COc2ccc(S(=O)(=O)NC3(C(=O)NO)CN(C(=O)C(C)(C)C)C3)cc2)c2ccccc2n1 [Example 7a, N-hydroxy-3-((4-((2-methylquinolin-4-yl)methoxy)phenyl)sulfonamido)-1-pivaloylazetidine-3-carboxamide] | 50 to 100
20 | Cc1cc(COc2ccc(S(=O)(=O)NC3(C(=O)NO)CN(C(=O)CC(C)C)C3)cc2)c2ccccc2n1 [Example 7c, N-hydroxy-1-(3-methylbutanoyl)-3-((4-((2-methylquinolin-4-yl)methoxy)phenyl)sulfonamido)azetidine-3-carboxamide] | < 50
21 | Cc1cc(COc2ccc(S(=O)(=O)NC3(C(=O)NO)CN(C(=O)C4CCOCC4)C3)cc2)c2ccccc2n1 [Example 7d, N-hydroxy-3-((4-((2-methylquinolin-4-yl)methoxy)phenyl)sulfonamido)-1-(tetrahydro-2H-pyran-4-carbonyl)azetidine-3-carboxamide] | < 50
22 | Cc1cc(COc2ccc(S(=O)(=O)NC3(C(=O)NO)CN(C(=O)C4CCC4)C3)cc2)c2ccccc2n1 [Example 7e, 1-(cyclobutanecarbonyl)-N-hydroxy-3-((4-((2-methylquinolin-4-yl)methoxy)phenyl)sulfonamido)azetidine-3-carboxamide] | < 50
23 | CCC(CC)C(=O)N1CC(NS(=O)(=O)c2ccc(OCc3cc(C)nc4ccccc34)cc2)(C(=O)NO)C1 [Example 7f, 1-(2-ethylbutanoyl)-N-hydroxy-3-((4-((2-methylquinolin-4-yl)methoxy)phenyl)sulfonamido)azetidine-3-carboxamide] | 50 to 100
